# Measured values: patent US7855325B2, “Use of nitric oxide modulators in Agrobacterium-mediated plant transformation” (Monsanto Technology LLC, priority 2003, dated 2010)
# What was measured:
# corn immature embryos [1] = test: Callus induction and cell proliferation from corn immature embryos on medium with NO modulators; format: cell-based; conditions: 0.01 mM SNAP, compared to other treatments and controls
# Method: This example describes the use of nitric oxide modulators in Agrobacterium-mediated transformation of corn. Corn callus and embryos, with and without previous inoculation in Agrobacterium, were cultured on medium containing NO donors (0.1 mM SNP and 0.01 mM SNAP), a NO-synthase inhibitor (1 mM L-NMMA), and the enantiomer of the inhibitor as negative control (1 mM D-NMMA, which has no effect on NO-synthase). All chemicals were obtained from EMD Biosciences, Inc. (La Jolla, Calif.). Callus and embryos, with and without previous inoculation in Agrobacterium, cultured on MSW57 (Table 1) were used as additional controls. The increase in the percentage of explants expressing GFP recorded on media with NO donors from Day 3 to Day 6 might be due to compound degradation. […] Limiting nitric oxide (NO) production in immature embryos and callus could increase transient GFP expression.
# corn immature embryos [2] = test: Follow-up callus induction experiment, embryos on liquid MSW57 medium with L-NMMA or SNAP; format: cell-based; conditions: MSW57 plus 0.1 mM SNAP, 14-d in culture
# Method: To follow up on this callus induction observation, a new experiment was set up where a typical embryo harvest was done from several ears and the embryos were distributed onto control medium MSW57, MSW57 plus 1.0 mM L-NMMA or 0.1 mM S-nitroso-N-acetylpenicillamine (SNAP, a NO donor compound). In this experiment the embryos were placed on a dark Millipore filter set on top of two pieces of felt.
smiles,measurement,setting,value
"CC(=O)N[C@H](C(=O)O)C(C)(C)SN=O (racemic) [SNAP, S-nitroso-N-acetylpenicillamine]",cell proliferation of embryo-derived callus,corn immature embryos [1],significantly higher
same,embryos with callus induction versus control,corn immature embryos [2],more embryos with callus induction than the control
